pIC50: −log10 of the molar value. Where two headings read alike, the source gives them in different places.
Tests used:
human ATGL = molecular target: T1, human ATGL (Homo sapiens, UniProt Q96AD5); assay: TG hydrolase activity, Expi cell lysates expressing human ATGL + CGI-58, radiolabelled triolein; assay type: biochemical
T1 construct: made in house; host or cells: Expi cells (lysate, not purified)
T1 sequence (Q96AD5 1-504): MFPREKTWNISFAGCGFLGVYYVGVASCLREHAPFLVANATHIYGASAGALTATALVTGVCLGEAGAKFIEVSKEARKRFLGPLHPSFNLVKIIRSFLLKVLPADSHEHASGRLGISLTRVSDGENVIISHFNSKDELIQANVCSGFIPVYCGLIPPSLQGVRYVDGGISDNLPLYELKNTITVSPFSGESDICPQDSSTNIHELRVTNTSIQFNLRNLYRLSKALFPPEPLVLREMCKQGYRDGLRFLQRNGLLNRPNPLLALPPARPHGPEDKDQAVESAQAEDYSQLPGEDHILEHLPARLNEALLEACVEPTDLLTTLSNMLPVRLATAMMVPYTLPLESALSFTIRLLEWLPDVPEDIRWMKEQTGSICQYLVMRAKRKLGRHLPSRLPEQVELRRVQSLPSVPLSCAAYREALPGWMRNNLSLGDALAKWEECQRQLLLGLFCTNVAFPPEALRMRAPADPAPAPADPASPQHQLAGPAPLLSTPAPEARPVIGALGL
Procedure: (§1) Triglyceride (TG) hydrolase activity was measured as previously described (Schweiger M et al., Methods in Enzymology, 2014, 538:171-93). In brief, TG hydrolase activity was determined by adding recombinant purified CGI-58 to Expi cell lysates expressing human ATGL. For determination of cross-species reactivity Expi lysates expressing ATGL from different model organisms (e.g. mouse, rat, rhesus monkey, goat, etc.) were used. Samples were incubated with DMSO (carrier) or increasing concentrations of ATGL inhibitors dissolved in DMSO. TG substrate was prepared by emulsifying 330 μM radiolabelled triolein (40,000 c.p.m./nmol) and 45 μM phosphatidylcholine/phosphatidylinositol (3:1) in 100 mM potassium phosphate buffer (pH 7.0) by sonication and adjusting to 5% essentially FA-free BSA. TG substrate was added to the reaction mixture and incubated for 1 h at 37° C. in the water bath. The reaction was terminated by adding methanol/chloroform/heptane (10:9:7) and 0.1 M potassium carbonate with 0.1 M boric acid (pH 10.5). After centrifugation at 800 g for 15 min the radioactivity in the upper phase was determined by liquid scintillation counting and the rate of FA hydrolysis was calculated. IC50 values were determined as inhibitor concentration capable of inhibiting TG hydrolase activity by 50% as compared to DMSO control. Samples were measured as duplicates. The determination of IC50 values for human ATGL is illustrated in FIG. 1.

murine ATGL = molecular target: T2, murine ATGL (Mus musculus, UniProt Q8BJ56); assay: TG hydrolase activity, Expi lysates expressing mouse ATGL + CGI-58, radiolabelled triolein; assay type: biochemical
T2 construct: made in house; host or cells: Expi cells (lysate)
T2 sequence (Q8BJ56 1-486): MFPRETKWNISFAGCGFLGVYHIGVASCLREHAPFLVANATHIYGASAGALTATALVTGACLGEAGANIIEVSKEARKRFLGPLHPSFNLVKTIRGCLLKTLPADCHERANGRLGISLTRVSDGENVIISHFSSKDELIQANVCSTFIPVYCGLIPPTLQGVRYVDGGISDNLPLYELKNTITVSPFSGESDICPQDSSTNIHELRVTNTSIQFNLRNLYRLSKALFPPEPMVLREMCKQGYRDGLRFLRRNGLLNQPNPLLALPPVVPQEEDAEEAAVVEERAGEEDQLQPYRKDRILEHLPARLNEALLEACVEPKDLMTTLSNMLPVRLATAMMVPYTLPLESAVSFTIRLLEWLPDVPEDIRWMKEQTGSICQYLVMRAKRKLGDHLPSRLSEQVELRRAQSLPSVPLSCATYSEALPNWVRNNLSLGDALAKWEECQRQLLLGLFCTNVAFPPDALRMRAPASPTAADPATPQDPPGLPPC
Procedure: as §1
Lysates from Expi cells overexpressing ATGL from mouse (Mus musculus) were incubated with recombinant purified ATGL co-activator CGI-58 and ATGL inhibitors at 50 μM. Subsequently, substrate containing radiolabeled triolein was added and liberated FA were extracted and quantified by liquid scintillation. Inhibitors were dissolved in DMSO which was used as control. Samples were measured in triplicates.

[1] = values of text and figure legend, read-out: IC50 on human ATGL (hATGL)
[2] = Example 237, read-out: Inhibition of human ATGL − IC50
[3] = 50 μM compound, Example 237, read-out: Inhibition of murine ATGL at 50 μM − mean [%]
[4] = Example 238, read-out: Inhibition of human ATGL IC50
[5] = 50 μM, Example 238, read-out: % Inhibition of murine ATGL at 50 μM

CCOC(=O)c1cn(-c2ccc(OCC)cc2)cn1 [AM-30, reference compound]
pIC50 (human ATGL; [1]): ≤ 3.70

CCOC(=O)c1cnc(-c2ccc(OCC)cc2)s1 [AM-52, reference compound]
pIC50 (human ATGL; [1]): < 3.70

CCOC(=O)c1cc(-c2ccc(OCC)cc2)no1 [AMU-4-245, reference compound]
pIC50 (human ATGL; [1]): ≤ 3.70

CCOC(=O)c1cc(-c2ccc(OCC)cc2)ns1 [AMU-27, reference compound]
pIC50 (human ATGL; [1]): ≤ 3.70

COCOc1ccc(-c2cccc(C(=O)OC(C)C)n2)cc1 [Example 13]
pIC50 (human ATGL; [2]): 5.10

CC(C)OC(=O)c1cccc(-c2ccccc2)n1 [Example 24]
pIC50 (human ATGL; [2]): 4.60 | inhibition at 50 µM (murine ATGL; [3]): 38%

CC(C)OC(=O)c1cccc(-c2ccc(F)cc2)n1 [Example 25]
pIC50 (human ATGL; [2]): 5.10 | inhibition at 50 µM (murine ATGL; [3]): 10.9%

CC(C)OC(=O)c1cccc(-c2ccc(C(=O)N(C)C)cc2)n1 [Example 42]
pIC50 (human ATGL; [2]): 5.00 | inhibition at 50 µM (murine ATGL; [3]): 6.2%

CCOC(=O)c1cccc(-c2ccc(C(C)OC)cc2)n1 (stereo not drawn) [Example 45]
pIC50 (human ATGL; [2]): 5.00

C#CC(C)OC(=O)c1cc(OC)cc(-c2ccc(CCC)cc2)n1 (stereo not drawn) [Example 54]
pIC50 (human ATGL; [2]): 4.70 | inhibition at 50 µM (murine ATGL; [3]): 0%

CCC(C)c1ccc(-c2cc(OC)cc(C(=O)OC(C)C)n2)cc1 (stereo not drawn) [Example 56]
pIC50 (human ATGL; [2]): 5.15 | inhibition at 50 µM (murine ATGL; [3]): 0%

CCCCc1ccc(-c2cc(OC)cc(C(=O)OC(C)C)n2)cc1 [Example 57]
pIC50 (human ATGL; [2]): 5.70

COc1cc(C(=O)OC(C)C)nc(-c2ccc(C(C)OC)cc2)c1 (stereo not drawn) [Example 62]
pIC50 (human ATGL; [2]): 5.70

CON(C)C(=O)c1ccc(-c2cccc(C(=O)OC(C)C)n2)cc1 [Example 77]
pIC50 (human ATGL; [2]): 5.30 | inhibition at 50 µM (murine ATGL; [3]): 0%

CC(C)OC(=O)c1cccc(CCc2ccccc2)n1 [Example 80]
pIC50 (human ATGL; [2]): 4.30 | inhibition at 50 µM (murine ATGL; [3]): 3.4%

CC(C)OC(=O)c1cccc(OCCc2ccccc2)n1 [Example 91]
pIC50 (human ATGL; [2]): 4.30

CCOC(=O)c1cccc(-c2ccc(COC(C)=O)cc2)n1 [Example 93]
pIC50 (human ATGL; [2]): 4.70

CC(C)OC(=O)c1cccc(-c2ccc(OC(C)C)cc2)n1 [Example 95]
pIC50 (human ATGL; [2]): 5.52 | inhibition at 50 µM (murine ATGL; [3]): 13.1%

CC(C)OC(=O)c1ccc(-c2cccc(C(=O)OC(C)C)n2)cc1 [Example 97]
pIC50 (human ATGL; [2]): 4.70

CCOC(=O)c1csc(-c2ccc(SCC)cc2)n1 [Example 98, Ethyl 2-(4-(ethylthio)phenyl)thiazole-4-carboxylate]
pIC50 (human ATGL; [2]): 4.92 | inhibition at 50 µM (murine ATGL; [3]): 0%

CCOC(=O)c1csc(-c2ccc(SC)cc2)n1 [Example 99, Ethyl 2-(4-(methylthio)phenyl)thiazole-4-carboxylate]
pIC50 (human ATGL; [2]): 4.92 | inhibition at 50 µM (murine ATGL; [3]): 37.3%

CCOC(=O)c1csc(-c2ccc(SC(C)C)cc2)n1 [Example 100]
pIC50 (human ATGL; [2]): 4.70 | inhibition at 50 µM (murine ATGL; [3]): 0%

CCOC(=O)c1csc(-c2ccc(OC)cc2)n1 [Example 102, Ethyl 2-(4-methoxyphenyl)thiazole-4-carboxylate]
pIC50 (human ATGL; [2]): 5.22 | inhibition at 50 µM (murine ATGL; [3]): 21.5%

C#CCOC(=O)c1csc(-c2ccc(OCC)cc2)n1 [Example 149, Prop-2-yn-1-yl 2-(4-ethoxyphenyl)thiazole-4-carboxylate]
pIC50 (human ATGL; [2]): 5.52

CCC/C=C/COC(=O)c1csc(-c2ccc(OCC)cc2)n1 [Example 155, (E)-Hex-2-en-1-yl 2-(4-ethoxyphenyl)thiazole-4-carboxylate]
pIC50 (human ATGL; [2]): 4.82

CCCCCCOC(=O)c1csc(-c2ccc(OCC)cc2)n1 [Example 156, Hexyl 2-(4-ethoxyphenyl)thiazole-4-carboxylate]
pIC50 (human ATGL; [2]): 4.82

CCOc1ccc(-c2nc(C(=O)OCc3ccccc3)cs2)cc1 [Example 158, Benzyl 2-(4-ethoxyphenyl)thiazole-4-carboxylate]
pIC50 (human ATGL; [2]): 4.82

CCOc1ccc(-c2nc(C(=O)OCc3ccncc3)cs2)cc1 [Example 159, Pyridin-4-ylmethyl 2-(4-ethoxyphenyl)thiazole-4-carboxylate]
pIC50 (human ATGL; [2]): 4.70

CCOc1ccc(-c2nc(C(=O)OCc3cccnc3)cs2)cc1 [Example 160, Pyridin-3-ylmethyl 2-(4-ethoxyphenyl)thiazole-4-carboxylate]
pIC50 (human ATGL; [2]): 4.82

CCOC(=O)c1nc(-c2ccc(OCC)cc2)sc1Br [Example 164, Ethyl 5-bromo-2-(4-ethoxyphenyl)thiazole-4-carboxylate]
pIC50 (human ATGL; [2]): 4.60

CCOC(=O)c1nc(-c2ccc(OCC)cc2)sc1I [Example 165, Ethyl 2-(4-ethoxyphenyl)-5-iodothiazole-4-carboxylate]
pIC50 (human ATGL; [2]): 5.30

CCOc1ccc(-c2nc(C(=O)OC(C)(C)C)c(N3CCCCC3)s2)cc1 [Example 167, tert-Butyl 2-(4-ethoxyphenyl)-5-(piperidin-1-yl)thiazole-4-carboxylate]
pIC50 (human ATGL; [2]): 5.00

CCOc1ccc(-c2nc(C(=O)OC(C)(C)C)c(C(C)=O)s2)cc1 [Example 171, tert-Butyl 5-acetyl-2-(4-ethoxyphenyl)thiazole-4-carboxylate]
pIC50 (human ATGL; [2]): 5.30

CCOC(=O)c1nc(-c2ccc(OCC)cc2)sc1C(C)=O [Example 172, Ethyl 5-acetyl-2-(4-ethoxyphenyl)thiazole-4-carboxylate]
pIC50 (human ATGL; [2]): 4.70

CCOc1ccc(-c2nc(C(=O)OC(C)(C)C)c(C(=O)C(C)C)s2)cc1 [Example 173, tert-Butyl 2-(4-ethoxyphenyl)-5-isobutyrylthiazole-4-carboxylate]
pIC50 (human ATGL; [2]): 4.92

CCOc1ccc(-c2nc(C(=O)OC(C)(C)C)c(C(=O)C3CC3)s2)cc1 [Example 174, tert-Butyl 5-(cyclopropanecarbonyl)-2-(4-ethoxyphenyl)thiazole-4-carboxylate]
pIC50 (human ATGL; [2]): 4.60

CCOc1ccc(-c2nc(C(=O)OCc3cocn3)cs2)cc1 [Example 218, Oxazol-4-ylmethyl 2-(4-ethoxyphenyl)thiazole-4-carboxylate]
pIC50 (human ATGL; [4]): 4.70

CCOc1ccc(-c2nc(C(=O)OCc3cnco3)cs2)cc1 [Example 220]
pIC50 (human ATGL; [4]): 4.52

CCOc1ccc(-c2nc(C(=O)OC(C)c3nccs3)cs2)cc1 (stereo not drawn) [Example 225, 1-(Thiazol-2-yl)ethyl 2-(4-ethoxyphenyl)thiazole-4-carboxylate]
inhibition at 50 µM (murine ATGL; [5]): 68%

CCOC(=O)c1nc(-c2ccc(OCC)cc2)sc1C(C)C [Example 227, Ethyl 2-(4-ethoxyphenyl)-5-isopropylthiazole-4-carboxylate]
inhibition at 50 µM (murine ATGL; [5]): 44%

COc1ccc(-c2nc(C(=O)OCc3ccsc3)cs2)cc1 [Example 231, Thiophen-3-ylmethyl 2-(4-methoxyphenyl)thiazole-4-carboxylate]
pIC50 (human ATGL; [4]): 4.52

CCCOc1ccc(-c2nc(C(=O)OCc3ccsc3)cs2)cc1 [Example 232, Thiophen-3-ylmethyl 2-(4-propoxyphenyl)thiazole-4-carboxylate]
pIC50 (human ATGL; [4]): 4.92

CC(C)Oc1ccc(-c2nc(C(=O)OCc3ccsc3)cs2)cc1 [Example 233, Thiophen-3-ylmethyl 2-(4-Isopropoxyphenyl)thiazole-4-carboxylate]
pIC50 (human ATGL; [4]): 5.00

CCOc1ccc(-c2ccc(C)c(C(=O)OC(C)C)n2)cc1 [NG-469, reference compound]
pIC50 (human ATGL; [1]): < 3.70

CN(C)C(=O)Nc1cccc(-c2ccc(N(C)C)cc2)c1 [atglistatin, reference compound]
pIC50 (human ATGL; [1]): < 3.70

Source: US20220289698A1, “INHIBITORS OF HUMAN ATGL” (Karl-Franzens-Universität Graz, priority 2019, published 2022)
